Assay type in all cases: in vitro ADME
Series [1] is described as follows: Microsomal stability assay, human liver microsomes. Particulars: for CLINT human: human liver microsomes 0.5 mg/mL, 1 μM compound; for CLHEP human: predicted hepatic clearance, human microsomes.
Series [2] can be described thus: Microsomal stability assay, rat liver microsomes. Particulars: for CLHEP rat: predicted hepatic clearance, rat microsomes; for CLINT rat: rat liver microsomes 0.5 mg/mL, 1 μM compound.
Series [3] in a line: Microsomal stability assay, mouse liver microsomes. For orientation: Liver microsomes are a subcellular fraction often used to study metabolism.
The mark [4] stands for this setting: mouse liver microsomes 0.5 mg/mL, 1 μM compound.
Where [5] appears, read: predicted hepatic clearance, mouse microsomes.
Where [6] appears, read: male, CD-1, mouse, 1 μM, pH 7.4.

Consider `O=C(N[C@@H](Cn1ccnc1)c1ccc(Cl)cc1Cl)c1ccc(-c2nnc(-c3ccc(C(F)(F)F)c(F)c3)o2)cc1` [Compound 2, (R)-N-(1-(2,4-Dichlorophenyl)-2-(1H-imidazol-1-yl)ethyl)-4-(5-(3-fluoro-4-(trifluoromethyl)phenyl)-1,3,4-oxadiazol-2-yl)benzamide], for which, in series [1], the CLINT human is given as 6.06 mL/min/kg body weight and the CLHEP human was 4.07 mL/min/kg body weight. For the same molecule, in series [2], the CLHEP rat is listed as 24 mL/min/kg body weight and the CLINT rat was found to be 36 mL/min/kg body weight. The CLINT mouse in series [3] (setting [4]) is 60 mL/min/kg body weight. In addition, the CLHEP mouse in series [3] (setting [5]) was 36 mL/min/kg body weight.
As to `O=C(N[C@@H](Cn1ccnc1)c1ccc(Cl)cc1Cl)c1ccc(-c2nnc(-c3ccccc3)o2)cc1` [VNI, (R)-N-(1-(2,4-dichlorophenyl)-2-(1H−imidazol-1-yl)ethyl)-4-(5-phenyl-1,3,4-oxadiazol-2-yl)-benzamide, reference compound], in series [1], the CLINT human was 8.31 mL/min/kg body weight and the CLHEP human was 5.95 mL/min/kg body weight. In series [2], the CLHEP rat is given as 19.2 mL/min/kg body weight and the CLINT rat was determined as 26.4 mL/min/kg body weight. In series [3] (setting [4]), the CLINT mouse is 87 mL/min/kg body weight. For the same molecule, the CLHEP mouse in series [3] (setting [5]) was 44 mL/min/kg body weight.
Turning to `O=C(N[C@@H](Cn1ccnc1)c1ccc(Cl)cc1Cl)c1ccc(-c2nnc(-c3ccc(F)c(F)c3)o2)cc1` [Compound 1, (R)-N-(1-(2,4-Dichlorophenyl)-2-(1H-imidazol-1-yl)ethyl)-4-(5-(3,4-difluorophenyl)-1,3,4-oxadiazol-2-yl)benzamide], in series [1], the CLINT human was 7.53 mL/min/kg body weight and the CLHEP human was 5.54 mL/min/kg body weight. Also, in series [2], the CLHEP rat is listed as 21 mL/min/kg body weight and the CLINT rat is recorded as 31 mL/min/kg body weight. In series [3] (setting [4]), the CLINT mouse was found to be 55 mL/min/kg body weight. Also, in series [3] (setting [5]), the CLHEP mouse is 34 mL/min/kg body weight.
`O=C(N[C@@H](Cn1ccnc1)c1ccc(Cl)cc1Cl)c1ccc(-c2nnc(-c3cc(F)cc(-c4ncncc4F)c3)o2)cc1` [Compound 15, (R)-N-(1-(2,4-Dichlorophenyl)-2-(1H-imidazol-1-yl)ethyl)-4-(5-(3-fluoro-5-(5-fluoropyrimidin-4-yl)phenyl)-1,3,4-oxadiazol-2-yl)-benzamide]: in series [1], the CLINT human was 14.9 mL/min/kg body weight and the CLHEP human was 8.37 mL/min/kg body weight. Moreover, in series [2], the CLHEP rat was 19.5 mL/min/kg body weight and the CLINT rat was found to be 27.0 mL/min/kg body weight. Also, the CLINT mouse in series [3] (setting [4]) was 104 mL/min/kg body weight. In series [3] (setting [5]), the CLHEP mouse is 48.3 mL/min/kg body weight.
For `O=C(N[C@@H](Cn1ccnc1)c1ccc(Cl)cc1Cl)c1ccc(-c2nnc(-c3cc(-c4ccccn4)ccc3F)o2)cc1` [Compound 13, (R)-N-(l-(2,4-Dichlorophenyl)-2-(TH-imidazol-l-yl)ethyl)-4-(5-(2-fluoro-5-(pyridin-2-yl)phenyl)-1,3,4-oxadiazol-2-yl)benzamide], in series [1], the CLINT human came to 10.2 mL/min/kg body weight and the CLHEP human is on record as 6.85 mL/min/kg body weight. Besides, in series [2], the CLHEP rat was 29.0 mL/min/kg body weight and the CLINT rat worked out at 49.4 mL/min/kg body weight. Besides, in series [3] (setting [4]), the CLINT mouse was determined as 238 mL/min/kg body weight. The CLHEP mouse in series [3] (setting [5]) is on record as 65 mL/min/kg body weight.
For `O=C(N[C@@H](Cn1ccnc1)c1ccc(Cl)cc1Cl)c1ccc(-c2nnc(-c3ccc(-c4ccccn4)cc3)o2)cc1` [Compound 10, (R)-N-(1-(2,4-Dichlorophenyl)-2-(1H-imidazol-1-yl)ethyl)-4-(5-(4-(pyridin-2-yl)phenyl)-1,3,4-oxadiazol-2-yl)benzamide], in series [1], the CLINT human was 10.8 mL/min/kg body weight and the CLHEP human is recorded as 7.15 mL/min/kg body weight. For the same molecule, in series [2], the CLHEP rat is given as 40 mL/min/kg body weight and the CLINT rat stood at 94 mL/min/kg body weight. For the same molecule, the CLINT mouse in series [3] (setting [4]) is reported as 95 mL/min/kg body weight. The CLHEP mouse in series [3] (setting [5]) is recorded as 46 mL/min/kg body weight.
Turning to `CS(=O)(=O)c1ccc(-c2nnc(-c3ccc(C(=O)N[C@@H](Cn4ccnc4)c4ccc(Cl)cc4Cl)cc3)o2)cc1Cl` [Compound 14, (R)-4-(5-(3-Chloro-4-(methylsulfonyl)phenyl)-1,3,4-oxadiazol-2-yl)-N-(1-(2,4-dichlorophenyl)-2-(1H-imidazol-1-yl)ethyl)benzamide], in series [1], the CLINT human was 9.31 mL/min/kg body weight and the CLHEP human is given as 6.45 mL/min/kg body weight. Also, in series [2], the CLHEP rat is on record as 42 mL/min/kg body weight and the CLINT rat came to 104 mL/min/kg body weight. In series [3] (setting [6]), this molecule yielded a CLHEP mouse of 34.5 mL/min/kg body weight. The molecule further showed a CLINT mouse in series [3] (mouse, microsomes) of 56 mL/min/kg body weight.
As for `O=C(N[C@@H](Cn1ccnc1)c1ccc(Cl)cc1Cl)c1ccc(-c2nnc(-c3ccc(-c4ccccn4)cc3F)o2)cc1` [Compound 12, (R)-N-(1-(2/4-Dichlorophenyl)-2-(1H-imidazol-1-yl)ethyl)-4-(5-(4-(3-fluoropyridin-2-yl)phenyl)-1,3,4-oxadiazol-2-yl)benzamide], in series [1], the CLINT human turned out to be 15 mL/min/kg body weight and the CLHEP human was 8.75 mL/min/kg body weight. Also, in series [2], the CLHEP rat is reported as 29.7 mL/min/kg body weight and the CLINT rat worked out at 51.6 mL/min/kg body weight. Also, the CLINT mouse in series [3] (setting [4]) is reported as 36.5 mL/min/kg body weight. For the same molecule, the CLHEP mouse in series [3] (setting [5]) is recorded as 26.0 mL/min/kg body weight.
With `O=C(N[C@@H](Cn1ccnc1)c1ccc(Cl)cc1Cl)c1ccc(-c2nnc(-c3cccc(-c4ccccn4)c3)o2)cc1` [Compound 9, (R)-N-(1-(2,4-Dichlorophenyl)-2-(1H-imidazol-1-yl)ethyl)-4-(5-(3-(pyridin-2-yl)phenyl)-1,3,4-oxadiazol-2-yl)benzamide], in series [1], the CLINT human worked out at 13.1 mL/min/kg body weight and the CLHEP human is reported as 8.06 mL/min/kg body weight. Further, in series [2], the CLHEP rat was 35 mL/min/kg body weight and the CLINT rat is 68 mL/min/kg body weight. In series [3] (setting [6]), this molecule returned a CLHEP mouse of 56 mL/min/kg body weight. Besides, in series [3] (mouse, microsomes), the CLINT mouse amounted to 152 mL/min/kg body weight.
Take `O=C(N[C@@H](Cn1ccnc1)c1ccc(Cl)cc1Cl)c1ccc(-c2nnc(-c3cc(F)cc(OCC(F)(F)F)c3)o2)cc1` [Compound 4, (R)-N-(1-(2,4-Dichlorophenyl)-2-(1H-imidazol-1-yl)ethyl)-4-(5-(3-fluoro-5-(2,2,2-trifluoroethoxy)phenyl)-1,3,4-oxadiazol-2-yl)-benzamide]: in series [1], the CLINT human amounted to 11.3 mL/min/kg body weight and the CLHEP human is 7.33 mL/min/kg body weight. In series [2], the CLHEP rat is listed as 29 mL/min/kg body weight and the CLINT rat is on record as 50.4 mL/min/kg body weight. The CLHEP mouse in series [3] (setting [6]) was 43.6 mL/min/kg body weight. In series [3] (mouse, microsomes), this molecule came in with a CLINT mouse of 84.7 mL/min/kg body weight.
On to `O=C(N[C@@H](Cn1ccnc1)c1ccc(Cl)cc1Cl)c1ccc(-c2nnc(-c3cc(F)cc(-c4ccccn4)c3)o2)cc1` [Compound 11, (R)-N-(1-(2,4-Dichlorophenyl)-2-(1H-imidazol-1-yl)ethyl)-4-(5-(3-fluoro-5-(pyridin-2-yl)phenyl)-1,3,4-oxadiazol-2-yl)benzamide], for which, in series [1], the CLINT human was 96.6 mL/min/kg body weight and the CLHEP human was 17.3 mL/min/kg body weight. Moreover, in series [2], the CLHEP rat was 24.0 mL/min/kg body weight and the CLINT rat worked out at 36.0 mL/min/kg body weight. Further, in series [3] (setting [4]), the CLINT mouse amounted to 55.0 mL/min/kg body weight. For the same molecule, the CLHEP mouse in series [3] (setting [5]) was 34 mL/min/kg body weight.
Take `O=C(N[C@@H](Cn1ccnc1)c1ccc(Cl)cc1Cl)c1ccc(-c2nnc(-c3ccc(Cl)c(Cl)c3)o2)cc1` [Compound 5, (R)-4-(5-(3,4-Dichlorophenyl)-1,3,4-oxadiazol-2-yl)-N-(1-(2,4-di-chlorophenyl)-2-(1H-imidazol-1-yl)ethyl)benzamide]: in series [1], the CLINT human turned out to be 11.4 mL/min/kg body weight and the CLHEP human is listed as 7.39 mL/min/kg body weight. In series [2], the CLHEP rat was 35 mL/min/kg body weight and the CLINT rat is recorded as 70 mL/min/kg body weight. This molecule returned a CLHEP mouse in series [3] (setting [6]) of 49 mL/min/kg body weight. The CLINT mouse in series [3] (mouse, microsomes) stood at 107 mL/min/kg body weight.
Regarding `O=C(N[C@@H](Cn1ccnc1)c1ccc(Cl)cc1Cl)c1ccc(-c2nnc(-c3cccc(Br)c3)o2)cc1` [Compound 6, (R)-4-(5-(3-Bromophenyl)-1,3,4-oxadiazol-2-yl)-N-(1-(2,4-di-chlorophenyl)-2-(1H-imidazol-1-yl)ethyl)benzamide], in series [1], the CLINT human worked out at 9.47 mL/min/kg body weight and the CLHEP human was 6.53 mL/min/kg body weight. Besides, in series [2], the CLHEP rat is 19 mL/min/kg body weight and the CLINT rat is 27 mL/min/kg body weight. The CLINT mouse in series [3] (setting [4]) is 126 mL/min/kg body weight. Moreover, in series [3] (setting [5]), the CLHEP mouse is 55 mL/min/kg body weight.
Turning to `O=C(N[C@@H](Cn1ccnc1)c1ccc(Cl)cc1Cl)c1ccc(-c2nnc(-c3ccc(OCC(F)(F)F)cc3F)o2)cc1` [Compound 3, (R)-N-(1-(2,4-Dichlorophenyl)-2-(1H-imidazol-1-yl)ethyl)-4-(5-(2-fluoro-4-(2,2,2-trifluoroethoxy)phenyl)-1,3,4-oxadiazol-2-yl)-benzamide], in series [1], the CLINT human was determined as 16.5 mL/min/kg body weight and the CLHEP human is 9.24 mL/min/kg body weight. In series [2], the CLHEP rat is 34 mL/min/kg body weight and the CLINT rat worked out at 64 mL/min/kg body weight. In addition, the CLINT mouse in series [3] (setting [4]) is reported as 88 mL/min/kg body weight. In series [3] (setting [5]), the CLHEP mouse was 44 mL/min/kg body weight.
